The values that follow come from PMC11617665, “Virtual and in Vitro Screening Employing a Repurposing Approach Reveal 13‐cis‐Retinoic Acid is a PTP1B Inhibitor” (Chemmedchem, 2024).

On the set-up of data set [1]: method as in PMID 19961047. The conditions noted are these: ingestion during pregnancy or shortly before conception; cited from earlier work.
Details of data set [2]: method as in PMID 11375780. The conditions noted are these: cited from earlier work.
Data set [3] has as its target T1, PTP1B (Homo sapiens, UniProt P18031).
T1 sequence (P18031 1-435): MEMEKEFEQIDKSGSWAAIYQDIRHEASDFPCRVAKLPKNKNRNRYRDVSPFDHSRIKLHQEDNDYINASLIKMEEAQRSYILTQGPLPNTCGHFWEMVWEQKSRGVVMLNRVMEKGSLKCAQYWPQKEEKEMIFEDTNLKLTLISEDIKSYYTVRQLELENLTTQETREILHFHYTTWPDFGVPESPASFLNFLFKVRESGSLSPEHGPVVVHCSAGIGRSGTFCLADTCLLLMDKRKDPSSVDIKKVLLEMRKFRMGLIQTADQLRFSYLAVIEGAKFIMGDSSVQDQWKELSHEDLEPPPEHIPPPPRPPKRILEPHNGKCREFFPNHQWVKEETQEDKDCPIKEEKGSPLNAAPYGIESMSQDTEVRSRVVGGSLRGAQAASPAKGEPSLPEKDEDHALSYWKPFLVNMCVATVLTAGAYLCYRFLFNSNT
The experiment in a line: Enzyme kinetics studies, type of inhibition (Lineweaver-Burk). The conditions noted are these: for type of inhibition: Lineweaver-Burk plot.
Method: The assay was carried out with different concentrations of inhibitor (0, 0.005, 0.040 and 0.060 mM) and substrate (0.10, 0.20, 0.30, 0.40, and 0.50 mM). Kinetic parameters (Vmax, Km, and Ki) were obtained by nonlinear regression fit analysis using Origin 2018 software.

In data set [4] the target is T1, PTP1B. The experiment in a line: In vitro spectrophotometric PTP1B inhibition assay (pNPP substrate). The data set is classed as biochemical. The protocol: The spectrophotometric method previously described was used.[39] The compounds and the positive control were dissolved in dimethylsulfoxide (DMSO). Aliquots of 0–10 μL solution of the compounds to be tested (in triplicate) were incubated with 85 μL of the enzyme (66 nM) in Tris [50 mM; Tris‐HCI Buffer, pH 6.8] and 5 microliters of the substrate (pNPP, 10 mM), for 15 min at 37 °C. After incubation, the absorbance was determined. The inhibitory activity for the compounds was determined as a percentage compared to the blank (Tris) according to the following equation: (1) %PTP1B=1-A415t/A415cX100%
Where %PTP1B is the percentage inhibition, A415t is the corrected absorbance of the tested compound (A415 final‐A415 initial), and A415c is the corrected absorbance of the blank (A415 final blank‐A415 initial target). The IC50 was calculated by regression analysis using the following equation: (2) %Inhibition=A100/1+I/CI50^s

As for `CC1=C(/C=C/C(C)=C/C=C/C(C)=C\C(=O)O)C(C)(C)CCC1` [3a, 13‐cis‐retinoic acid], the teratogenic effect entry in data set [1] is given as “teratogen”. In data set [2], the DE50 for humans is recorded as 0.4 mg/kg. Besides, on PTP1B [3], the Ki is 23.4 ± 2 µM and the type of inhibition result is recorded as “competitive inhibition”. Further, the type of inhibition result at PTP1B [3] (listed as 13‐cis‐retinoic acid) was “competitive PTP1B inhibitor”. In addition, it took 44 µM to reach half-maximal inhibition on PTP1B [4] (PTP1B 66 nM, pNPP, Tris pH 6.8, 15 min at 37 °C) (IC50). Besides, at PTP1B [4] (compounds evaluated at 2 mM), the “inhibitory activity against PTP1B” value is “significant inhibitory activity”.
